Measured values published in article PMC8655505, “Stimulation of the Runx2 P1 promoter by collagen-derived dipeptide prolyl-hydroxyproline bound to Foxg1 and Foxo1 in osteoblasts” (Bioscience Reports, 2021).
Square brackets hold non-standard residues; d marks the D form. Peptide text beside a SMILES is read from it. Hyp = O=C(O)[C@@H]1C[C@@H](O)CN1

Target: T1, Foxo1 (Mus musculus, UniProt Q9R1E0)
T1 construct: full-length
Experiment: competition of free Pro-Hyp with (Pro-Hyp-Gly)5-linked magnetic beads, Western blot
Assay type: binding
Settings: free Pro-Hyp 0.1 or 10 mM; pH 7.8, 150 mM KCl, 4 °C overnight; cell extract

T1 sequence (Q9R1E0 whole entry): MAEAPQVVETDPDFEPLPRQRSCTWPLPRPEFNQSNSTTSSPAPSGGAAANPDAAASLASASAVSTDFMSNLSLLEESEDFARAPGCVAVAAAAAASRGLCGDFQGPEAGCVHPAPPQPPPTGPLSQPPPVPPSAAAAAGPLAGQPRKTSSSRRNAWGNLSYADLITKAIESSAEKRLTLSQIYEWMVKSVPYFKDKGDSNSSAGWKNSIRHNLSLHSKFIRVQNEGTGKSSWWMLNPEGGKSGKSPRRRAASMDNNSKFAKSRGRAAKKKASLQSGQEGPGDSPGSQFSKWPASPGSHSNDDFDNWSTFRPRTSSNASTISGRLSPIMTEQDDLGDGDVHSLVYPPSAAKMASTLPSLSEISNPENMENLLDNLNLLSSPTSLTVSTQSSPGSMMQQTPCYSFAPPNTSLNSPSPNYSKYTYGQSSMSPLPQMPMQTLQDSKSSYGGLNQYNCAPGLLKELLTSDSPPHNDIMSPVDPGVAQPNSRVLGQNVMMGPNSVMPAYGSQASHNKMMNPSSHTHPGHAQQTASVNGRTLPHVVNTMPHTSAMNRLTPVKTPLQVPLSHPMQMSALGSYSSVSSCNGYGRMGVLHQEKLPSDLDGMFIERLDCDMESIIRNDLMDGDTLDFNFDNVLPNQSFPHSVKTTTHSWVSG

O=C(O)[C@@H]1C[C@@H](O)CN1C(=O)[C@@H]1CCCN1 [Pro-Hyp] (H-Pro-[Hyp]-OH)
competition of free Pro-Hyp with (Pro-Hyp-Gly)5-linked magnetic beads, Western b: These data suggest that Pro-Hyp binds to Foxo1.
